For data set [1], the system named is NPCs (tdTomato+ non-tumor control cells). In words: High-throughput drug testing: live-cell imaging of proliferation, non-tumor control NPCs. In kind it is cell-based, mouse. To be noted: imaged for 92 hours, paired toxicity screening. The protocol:
(§1) In high-throughput drug testing experiments, 10.000 cell from the cell lines generated from tumor dissociation and non-tumor control cells were plated in 96 well plates. 24 hours after the seeding appropriate concentration of each drug (1 μM for Vacquinol-1(Sigma-Aldrich, SML1187) and 0.5 μM for AKT 1/2 kinase inhibitor (Sigma- Aldrich, A6730)) was added to the media and cells were imaged for 92 hours in phase contrast using Incucyte S3 System. Images were collected every 2 hours using Incucyte S3 Software. Cell proliferation images analysis was done with Incucyte S3 software and normalized results presented and analyzed with Graphpad Prism 7.
(§2) Mice were euthanized in CO2 chamber and brains were collected in PBS. Immediately, EGFP+ tissue was micro-dissected under a Revolve Hybrid Microscope (Echo Labs, San Diego, Calif.). If allowed by the size of the tumor, some remains of the brain with residual tumor tissue was fixed in 4% PFA for tissue analysis. Microdissected tissue was mechanically dissociated into <1 mm pieces and further digested with Collagenase IV (Worthington Biochemical, Lakewood, N.J.), and DNAse I (Worthington Biochemical, Lakewood, N.J.). The resultant single cell suspension was filtered through […] cell strainer (Stellar Scientific, Baltimore, Md.) and erythrocytes were lysed with ACK lysis buffer (Thermo Fisher Scientific, Waltham, Mass.). Single cell suspensions were split into 3 parts: First, for scRNAseq or sc-ATACseq experiments, GFP+ cells from single cell samples were FACS sorted (into 1.5 ml tubes for 10× Chromium). A secondary fraction was used for in vitro cell line establishment. […]

Another data set has as its system K27M tumor cells. The conditions noted are these: earlier finding, no details given; cited from earlier work.
For a further data set, the system named is MADR K27M tumor cells. The experiment in a line: High-throughput drug testing: live-cell imaging of proliferation, MADR K27M tumor cell lines. In kind it is cell-based, mouse. The conditions noted are these: imaged for 92 hours, Incucyte phase contrast, 4 biological replicates. The protocol:
as §1
as §2, with “Mass.).” for “Mass.). Single cell suspensions were split into 3 parts: First, for scRNAseq or sc-ATACseq experiments, GFP+ cells from single cell samples were FACS sorted (into 1.5 ml tubes for 10× Chromium). A secondary fraction was used for in vitro cell line establishment.”

The mark [2] stands for this setting: AKT 1/2 kinase inhibitor 0.5 μM.

Entries after “also recorded” stand apart in the source; their conditions may differ.

With `O=c1[nH]c2ccccc2n1C1CCN(Cc2ccc(-c3nc4cc5nc[nH]c5cc4nc3-c3ccccc3)cc2)CC1` [Akt1/2 kinase inhibitor], the “cell proliferation of NPCs” value was “decreases proliferation” in data set [1] (setting [2]) and “similarly inhibited NPC proliferation” in data set [1] (AKT 1/2 kinase inhibitor 0.5 μM, listed as Akt1/2 inhibitor). Also, the “toxicity to K27M tumor cells (previously identified)” value with K27M tumor cells was “selectively toxic to K27M tumor cells”. The “cell proliferation of K27M tumor population” value with MADR K27M tumor cells (setting [2]) is recorded as “decreases proliferation”.

On to `OC(c1cc(-c2ccc(Cl)cc2)nc2ccccc12)C1CCCCN1` (stereo not shown) [Vacquinol-1], for which the “cell proliferation of NPCs” value in data set [1] (Vacquinol-1 1 μM) was “does not alter NPC culture growth”. Further, the “toxicity to K27M tumor cells (previously identified)” value in the data set on K27M tumor cells is recorded as “selectively toxic to K27M tumor cells”. Further, in the data set with MADR K27M tumor cells (Vacquinol-1 1 μM), the “cell proliferation of K27M tumor population” value is recorded as “inhibits K27M growth; also recorded: decreases proliferation preferentially”.
